Laboratory results: patent US7148194B2, “Method to increase fibronectin” (Kimberly-Clark Worldwide, Inc., priority 2002, dated 2006)
Entries after “also recorded” stand apart in the source; their conditions may differ. Residues, ends and D or L forms follow the SMILES beside them.

Tests used:
EpiDerm skin model = experiment: viability assay (MTT) in EpiDerm skin model; type: cell-based; conditions: peptide at 500 μM and 2 mM, relative to PBS control
Procedure: The sample containers were transferred to 6 well plates that contained fresh media. All peptides were dissolved in PBS at a final concentration of 10 mM, and 100 μL each peptide solution was pipetted onto the surface of the Epiderm sample container. Incubation was continued for 12 hours at 37° C., 5% CO2. After the incubation period, the sample containers were washed three times with PBS and the sample containers were transferred to a 24 well plate that contained 300 μL of MTT assay media per well (MTT concentration was 1 mg/mL). The colorimetric assay was allowed to develop for three hours (incubation at 37° C., 5% CO2). Sample containers were then transferred to a 24 well culture plate that contained 2 mL of isopropanol per well. Extraction of the colored precipitate occurred over a period of four hours at room temperature. Absorbance readings were taken at 570 nm and 650 nm for each sample. The percent viability of each sample relative to a PBS control was calculated as: 100×(OD570^sam−OD650^sam)/(OD570^con−OD650^con) (6) Routinely, the peptide sample was assayed in triplicate. Results

[1] = test system: normal human dermal fibroblasts (NHDF); experiment: NHDF migration assay, 48-well chemotaxis chamber; type: cell-based; conditions: for induction of NHDF migration: concentrations ranging from 1000 μg/mL to 10 ng/mL (data not shown)
Procedure: Normal, human dermal fibroblasts (NHDF) were obtained from Biowhittaker, (Walkersville, Md.) and propagated in T75 flasks in FBM media (500 mL, Biowhittaker) containing insulin, hFGF-b, GA-1000, and fetal bovine serum (10 mL) for up to 12 passages. For the migration assay, NHDF were washed once with 10 mL of Hank's buffered saline solution (HBSS). Three milliliters of trypsin (0.25%) in EDTA were added to the T75 flask for no more than five minutes to remove NHDF from the flask. NHDF in trypsin solution were added to 7 mL of FBM with no supplements added. NHDF were centrifuged for 5 minutes, and the supernatant was removed. NHDF were resuspended in 10 mL of FBM for counting. NHDF were centrifuged for another 5 minutes, and the supernatant was removed. NHDF were resuspended at 1×10^6 cells per mL in FBM without supplements. It was important to use FBM media only in migration assays because the complete media contains fibroblast growth factor and serum, both of which will trigger migration of fibroblasts.
(§1) Peptides were synthesized and purified by the Microchemical Facility at Emory University or by SigmaGenesis. All peptides were analyzed by mass spectrometry after HPLC to assess purity. Approximately 0.5–2.0 milligrams of peptide were used to make fresh stock solutions (5 mg/mL in PBS) for each migration assay. The peptide stock solutions in PBS were used to make more dilute solutions (1 mg/mL, 100 μg/mL, 10 μg/mL, 1 μg/mL, 100 ng/mL, 10 ng/mL) in FBM (without supplements) for the migration assays.
Polyvinylpyrrolidone-free polycarbonate membranes with […] pores (Neuroprobe, Inc., Gaithersburg, Md.) were washed with 90% ethanol for 15 minutes and rinsed four times with deionized water. Membranes were then placed into a glass dish containing an aqueous solution of 5 μg/mL gelatin. The glass dish was placed in to a water bath at about 90° C. for one hour. Membranes were removed from the gelatin solution and were allowed to dry for one hour in the 37° C. incubator.
A 48-well chemotaxis chamber (Neuroprobe, Inc., Gaithersburg, Md.) (see FIG. 20) was used for the migration assays. Twenty-eight μL of each test solution were added to the bottom wells of the chamber in quadruplicate. A gelatin-treated membrane was placed carefully on top of the bottom wells. The gasket and top part of chamber were then placed carefully on top of the membrane. The apparatus was tightened using six thumbscrews. A solution of NHDF containing an estimated cell density (2×10^5 cells per mL) was made by adding 320 μL of the 1×10^6 cells per mL solution to 1.28 mL of FBM (no supplements). Fifty microliters of the 2×10^5 cells per mL NHDF solution were added to the top part of each well in the chamber. The chamber was placed in the incubator at 37° C./5% CO2 for three hours. The chamber was removed, the thumbscrews were removed, and the chamber was turned upside down on a paper towel. […] The membrane was carefully removed. […] The membrane was fixed with methanol and stained using the Diff-Quik Staining Solutions I and II. The nuclei of NHDF are stained purple. The membrane was mounted on a glass slide using cedarwood immersion oil and a cover slip. […] The average number of migrated NHDF in the negative control was subtracted from the experimental (peptide) data and positive control data.

neutrophils = experiment: neutrophil migration assay, transwell plate; type: cell-based, human; conditions: 10 nM, positive control
Procedure: as §1, with “HBSS/HSA)” for “PBS)”, “solutions” for “solutions in PBS”, “ng/mL, and” for “ng/mL,”, “HBSS/HSA” for “FBM (without supplements)”, “the” for “the migration”
Neutrophils were isolated from human blood (collected in Vacutainer™ tubes containing EDTA) by layering the blood/EDTA mixture (about 20 mL) on top of two layers of Histopaque™ 1119 (bottom layer, 18 mL) and 1077 (top layer, 7 mL) in 50 mL Falcon tubes. The tubes were centrifuged at 1800 rpm for 30 minutes (no brake). Four layers appeared in the tubes after the spin (from top to bottom layers): plasma, 1077, 1119, and red blood cells. The buffy coat between the plasma and 1077 layers contained lymphocytes, monocytes, and some platelets. The plasma layer, the buffy coat, and most of the 1077 layer was removed and discarded. The 1119 layer that contained the neutrophils was removed and was placed into a clean 50 mL tube. Dulbecco's Phosphate Buffered Saline (DPBS) was added to bring the volume to 50 mL. The cells were centrifuged for 15 minutes at 2100 rpm. The cells were resuspended in 10 mL of DPBS, transferred to 15 mL tubes, and centrifuged again for 10 minutes at 2000 rpm. This process was repeated to wash the cells a second time. After the supernatant was removed, the red blood cells were lysed by adding 6 mL of cold sterile water to each 15 mL of supernatant. Cells were mixed in the water for only 30 seconds. Six mL of cold 2% sterile saline was then added. Cells were centrifuged again for 10 minutes at 2000 rpm. The red supernatant (containing hemoglobin from red blood cells) was removed. This process of red blood cell lysis was repeated two more times to remove all of the red blood cells. After most of the red blood cells were removed, neutrophils were resuspended in 10 mL of HBSS/HSA for counting with trypan blue.
A neutrophil migration assay was performed in duplicate using a 24-well transwell plate (3 μm pore size for membrane). Transwell membranes were pre-moistened with 20–40 μL of HBSS/HSA (0.04–0.4%). Chemotactic solutions (500 μL) were added to the bottom of each well. […] Transwells were then placed into the chemotactic solutions. The plate was placed into the incubator (37° C., 5% CO2) for one hour. Cells that migrated through the membrane were counted using trypan blue.
In the neutrophil migration experiments, neutrophils that were isolated were approximately 95% viable. […]

Molecule | total average viability (EpiDerm skin model) | NHDF migration, percent of the plasma fibronectin positive control ([1]; 100 μg/mL peptide) | NHDF migration, percent of the plasma fibronectin positive control ([1]; 1000 μg/mL peptide) | induction of NHDF migration [1] | further results
N=C(N)NCCC[C@H](NC(=O)[C@@H]1CCCN1C(=O)[C@H](Cc1ccccc1)NC(=O)[C@H](Cc1ccccc1)NC(=O)[C@H](CC(N)=O)NC(=O)[C@H](Cc1ccc(O)cc1)NC(=O)[C@@H](N)CC(N)=O)C(=O)N[C@@H](CCCCN)C(=O)N1CCC[C@H]1C(=O)N[C@@H](CCCCN)C(=O)O [Peptide 10-mer] (H-NYNFFPRKPK-OH; N-terminus and C-terminus assumed) | 89.6% | 11±0% | 30±2% |  | 
TMRKPRCGNPDVAN (listed as Homo sapiens) [Peptide 14-mer] |  |  |  | not chemotactic to NHDF at any concentration; also recorded: did not induce NHDF migration; also recorded: no effect on fibroblast mobility | 
IL-8: positive control for neutrophil migration, 10 nM [reference compound] |  |  |  |  | Percent Neutrophil Migration exp. 2 (neutrophils; 0.04% HSA): 51%; Percent Neutrophil Migration exp. 1 (neutrophils; 0.4% HSA): 81%
TLKAMRKPRCGNPDVAN (listed as Homo sapiens) [Peptide 17-mer] |  |  |  | not chemotactic to NHDF at any concentration; also recorded: did not induce NHDF migration; also recorded: no effect on fibroblast mobility | 
CC(C)[C@H](NC(=O)[C@H](CC(=O)O)NC(=O)[C@@H]1CCCN1C(=O)[C@H](CC(N)=O)NC(=O)CNC(=O)[C@H](CS)NC(=O)[C@H](CCCNC(=N)N)NC(=O)[C@@H]1CCCN1)C(=O)N[C@@H](C)C(=O)O [Peptide 9-mer] (H-PRCGNPDVA-OH; N-terminus and C-terminus assumed) | 95.8% | 16±10% | 32±2% |  | 
